# Data taken from patent US10611779B2, “Fused bicyclic heterocycle derivatives as pesticides” (Bayer CropScience Aktiengesellschaft, priority 2016, dated 2020).
# Assays:
# [1] = log P (neutral) by HPLC on reversed-phase column (EEC Directive 79/831 Annex V.A8); assay type: physicochemical; conditions: reversed-phase C18 HPLC column, reversed-phase C 18, 55° C., neutral range pH 7.8
# Method: The log P values are measured according to EEC Directive 79/831 Annex V.A8 by HPLC (high-performance liquid chromatography) on a reversed-phase column (C 18). Temperature: 55° C. The LC-MS determination in the neutral range is effected at pH 7.8 with 0.001 molar aqueous ammonium hydrogencarbonate solution and acetonitrile as eluents; linear gradient from 10% acetonitrile to 95% acetonitrile. Called log P (neutral) in the table. Calibration is effected using unbranched alkan-2-ones (having 3 to 16 carbon atoms) with known log P values (log P values determined on the basis of the retention times by linear interpolation between two successive alkanones).
# [2] = tested on: Myzus persicae; test: Myzus persicae - spray test; assay type: in vivo; conditions: application rate 100 g/ha; Chinese cabbage leaf discs, all stages; after 5 days
# Method: Myzus persicae—Spray Test [table] To produce a suitable active ingredient formulation, 1 part by weight of active ingredient is dissolved with the specified parts by weight of solvent and made up to the desired concentration with water containing an emulsifier concentration of 1000 ppm. To produce further test concentrations, the formulation is diluted with emulsifier-containing water. Discs of Chinese cabbage leaves (Brassica pekinensis) infested by all stages of the green peach aphid (Myzus persicae) are sprayed with an active ingredient formulation of the desired concentration. After 5 days, the efficacy in % is determined. 100% means that all the aphids have been killed; 0% means that no aphids have been killed.
# [3] = tested on: Myzus persicae; test: Myzus persicae - oral test; assay type: in vivo; conditions: microtitre plate, after 5 days
# Method: Myzus persicae—Oral Test [table] To produce a suitable active ingredient formulation, 1 part by weight of active ingredient is dissolved with the stated parts by weight of solvent and made up to the desired concentration with water. 50 μl of the active ingredient preparation are transferred into microtitre plates and made up to a final volume of 200 μl with 150 μl of IPL41 insect medium (33%+15% sugar). Subsequently, the plates are sealed with parafilm, which a mixed population of green peach aphids (Myzus persicae) within a second microtitre plate is able to puncture and imbibe the solution. After 5 days, the efficacy in % is determined. 100% means that all the aphids have been killed; 0% means that no aphids have been killed.
# [4] = tested on: Ctenocephalides felis; test: Ctenocephalides felis - in vitro contact tests with adult cat fleas; assay type: in vivo; conditions: application rate 5 μg/cm^2 (=500 g/ha), coated glass tube, after 48 h
# Method: Ctenocephalides felis—In Vitro Contact Tests with Adult Cat Fleas For the coating of the test tubes, 9 mg of active ingredient are first dissolved in 1 ml of acetone p.a. and then diluted to the desired concentration with acetone p.a. 250 μl of the solution are distributed homogeneously on the inner walls and the base of a 25 ml glass tube by turning and rocking on an orbital shaker (rocking rotation at 30 rpm for 2 h). With 900 ppm of active ingredient solution and internal surface area 44.7 cm^2, given homogeneous distribution, an area-based dose of 5 μg/cm^2 is achieved. After the solvent has evaporated off, the tubes are populated with 5-10 adult cat fleas (Ctenocephalides felis), sealed with a perforated plastic lid and incubated in a horizontal position at room temperature and ambient humidity. After 48 h, efficacy is determined. To this end, the tubes are stood upright and the fleas are knocked to the base of the tube. Fleas which remain motionless at the base or move in an uncoordinated manner are considered to be dead or moribund. […] 100% efficacy means that all the fleas were dead or moribund. 0% efficacy means that no fleas were harmed.
# [5] = tested on: Ctenocephalides felis; test: Ctenocephalides felis - oral test; assay type: in vivo; conditions: application rate 100 ppm; in citrated cattle blood; after 2 days
# Method: Ctenocephalides felis—Oral Test Solvent: dimethyl sulfoxide To produce a suitable active ingredient formulation, 10 mg of active ingredient are mixed with 0.5 ml of dimethyl sulfoxide. Dilution with citrated cattle blood gives the desired concentration. About 20 unfed adult cat fleas (Ctenocephalides felis) are placed into a chamber which is closed at the top and bottom with gauze. A metal cylinder whose bottom end is closed with parafilm is placed onto the chamber. The cylinder contains the blood/active ingredient formulation, which can be imbibed by the fleas through the parafilm membrane. After 2 days, the kill in % is determined. 100% means that all of the fleas have been killed; 0% means that none of the fleas have been killed.
# [6] = tested on: Lucilia cuprina; test: Lucilia cuprina test; assay type: in vivo; conditions: application rate 100 ppm; minced horsemeat; after 2 days
# Method: Lucilia cuprina Test Solvent: dimethyl sulfoxide To produce a suitable active ingredient formulation, 10 mg of active ingredient are mixed with 0.5 ml of dimethyl sulfoxide, and the concentrate is diluted with water to the desired concentration. About 20 L1 larvae of the Australian sheep blowfly (Lucilia cuprina) are transferred into a test vessel containing minced horsemeat and the active ingredient formulation of the desired concentration. After 2 days, the kill in % is determined. 100% means that all the larvae have been killed; 0% means that no larvae have been killed.
# [7] = tested on: Tetranychus urticae; test: Tetranychus urticae - spray test, OP-resistant; assay type: in vivo; conditions: application rate 20 g/ha; bean leaf discs, all stages; after 6 days
# Method: Tetranychus urticae—Spray Test, OP-Resistant
# (§1) To produce a suitable active ingredient formulation, 1 part by weight of active ingredient is dissolved with the specified parts by weight of solvent and made up to the desired concentration with water containing an emulsifier concentration of 1000 ppm. To produce further test concentrations, the formulation is diluted with emulsifier-containing water.
# Discs of bean leaves (Phaseolus vulgaris) infested with all stages of the greenhouse red spider mite (Tetranychus urticae) are sprayed with an active ingredient formulation of the desired concentration.
# After 6 days, the efficacy in % is determined. 100% means that all the spider mites have been killed; 0% means that no spider mites have been killed.
# [8] = tested on: Boophilus microplus; test: Boophilus microplus - injection test; assay type: in vivo; conditions: application rate 20 μg/animal; injection into engorged adult female ticks; after 7 days
# Method: Boophilus microplus—Injection Test Solvent: dimethyl sulfoxide To produce a suitable active ingredient formulation, 10 mg of active ingredient are mixed with 0.5 ml of solvent and the concentrate is diluted to the desired concentration with solvent. 1 μl of the active ingredient solution is injected into the abdomen of 5 engorged adult female cattle ticks (Boophilus microplus). The animals are transferred into dishes and kept in a climate-controlled room. Efficacy is assessed after 7 days by laying of fertile eggs. Eggs which are not visibly fertile are stored in a climate-controlled cabinet until the larvae hatch after about 42 days. An efficacy of 100% means that none of the ticks has laid any fertile eggs; 0% means that all the eggs are fertile.
# [9] = tested on: Phaedon cochleariae; test: Phaedon cochleariae - spray test; assay type: in vivo; conditions: application rate 100 g/ha; Chinese cabbage leaf discs; after 7 days
# Method: Phaedon cochleariae—Spray Test
# as §1
# Discs of Chinese cabbage leaves (Brassica pekinensis) are sprayed with an active ingredient formulation of the desired concentration and, after drying, populated with larvae of the mustard beetle (Phaedon cochleariae).
# After 7 days, the efficacy in % is determined. 100% means that all the beetle larvae have been killed; 0% means that no beetle larvae have been killed.
# [10] = tested on: Spodoptera frugiperda; test: Spodoptera frugiperda - spray test; assay type: in vivo; conditions: application rate 100 g/ha; maize leaf discs; after 7 days
# Method: Spodoptera frugiperda—Spray Test [table] To produce a suitable active ingredient formulation, 1 part by weight of active ingredient is dissolved with the specified parts by weight of solvent and made up to the desired concentration with water containing an emulsifier concentration of 1000 ppm. To produce further test concentrations, the formulation is diluted with emulsifier-containing water. Leaf discs of maize (Zea mays) are sprayed with an active ingredient formulation of the desired concentration and, after drying, populated with caterpillars of the armyworm (Spodoptera frugiperda). After 7 days, the efficacy in % is determined. 100% means that all the caterpillars have been killed; 0% means that no caterpillar has been killed.
# [11] = tested on: Musca domestica; test: Musca domestica test; assay type: in vivo; conditions: application rate 100 ppm; sponge with sugar solution; after 2 days
# Method: Musca domestica Test Solvent: dimethyl sulfoxide To produce a suitable active ingredient formulation, 10 mg of active ingredient are mixed with 0.5 ml of dimethyl sulfoxide, and the concentrate is diluted with water to the desired concentration. Vessels containing a sponge treated with sugar solution and the active ingredient formulation of the desired concentration are populated with 10 adult houseflies (Musca domestica). After 2 days, the kill in % is determined. 100% means that all of the flies have been killed; 0% means that none of the flies have been killed.
Compound,chromatographic logP [1],efficacy (aphids killed) [2],efficacy (aphids killed) ([3]; application rate 4 ppm),efficacy (aphids killed) ([3]; application rate 20 ppm),efficacy (fleas dead or moribund) [4],efficacy (kill of fleas) [5],efficacy (kill of L1 larvae) [6],efficacy (spider mites killed) [7],efficacy (no laying of fertile eggs) [8],efficacy (beetle larvae killed) [9],efficacy (caterpillars killed) [10],efficacy (kill of adult houseflies) [11]
"Cn1c(-c2nn3ccccc3c2Br)nc2cc(C(F)(F)F)ncc21 [2-(3-Bromopyrazolo[1,5-a]pyridin-2-yl)-3-methyl-6-(trifluoromethyl)imidazo[4,5-c]pyridine]",2.86,,,,,,,,,,,
"CCS(=O)(=O)c1c(-c2nc3cc(C(F)(F)F)ncc3n2C)nn2ccccc12 [Example I-1, 2-(3-Ethylsulfonylpyrazolo[1,5-a]pyridin-2-yl)-3-methyl-6-(trifluoromethyl)imidazo[4,5-c]pyridine]",2.26,100%,100%,100%,100%,100%,100%,,,,,
"CCS(=O)(=O)c1c(-c2nc3cc(C(F)(F)F)ncc3n2C)nn2cccnc12 [Example I-2, 2-(3-Ethylsulfonylpyrazolo[1,5-a]pyrimidin-2-yl)-3-methyl-6-(trifluoromethyl)imidazo[4,5-c]-pyridine]",1.58,90%,100%,100%,,,,90%,,,,
"CCS(=O)(=O)c1c(-c2nc3cc(C(F)(F)F)ncc3n2C)nn2c(C)cc(C)nc12 [Example I-3, 3-Ethylsulfonyl-5,7-dimethyl-2-[3-methyl-6-(trifluoromethyl)imidazo[4,5-c]pyridin-2-yl]-pyrazolo[1,5-a]pyrimidine]",2,100%,100%,100%,,100%,97%,,100%,,,
CCS(=O)(=O)c1c(-c2nc3cc(C(F)(F)F)cnc3n2C)nn2ccccc12 [Example I-4],,90%,100%,,100%,,100%,,,100%,100%,90%
CCS(=O)(=O)c1c(-c2nc3cc(C(F)(F)F)ncc3n2C)nn2cc(Cl)ccc12 [Example I-5],,,100%,,,,,,,100%,100%,
CCS(=O)(=O)c1c(-c2nc3cc(C(F)(F)F)cnc3n2C)nn2cc(Cl)ccc12 [Example I-6],,90%,100%,,,,,,,100%,100%,
